Test results taken from patent publication US10759740B2, “Antibacterial agents” (Rutgers, The State University of New Jersey, priority 2016, dated 2020).

What was measured:
Type in all cases: cell-based, Gardnerella vaginalis
[1] = test system: G. vaginalis pre-formed biofilm; assay: Minimum biofilm bactericidal concentration (MBC-B); conditions: 24 h, ≥3 log reduction
Description: This assay was performed according to Algburi et al. (Algburi et al., 2015. Path Dis 73(5)) with minor modifications: the overnight-grown G. vaginalis was diluted to approximately 10^7 CFU/ml. For the biofilm formation assay, aliquots of 200 μl were added into a 96-well tissue culture microplate, sealed by amplification tape (Nalge Nunc International, Rochester, N.Y., USA) and incubated for 24-36 h at 37° C. After incubation, the planktonic cells were removed by gently washing the biofilm twice with 200 μl of fresh broth. The biofilm was then treated with 200 μl of a predetermined concentration of the tested compound. The microplate was incubated for 24 h at 37° C. under anaerobic conditions. After incubation, the antimicrobials (supernatant) were discarded and the biofilm was washed twice with fresh BHIG broth. The biofilm was then disrupted by vigorous pipetting, in order to determine the number of biofilm-associated cells using the spot plate method.

[2] = test system: G. vaginalis ATCC 14019; assay: MIC broth microdilution (Example 3); conditions: planktonic, sBHI, anaerobic
Description: G. vaginalis ATCC 14019 strain was grown overnight in Brain Heart Infusion broth (Difco, Sparks, Md.) supplemented with 3% horse serum (sBHI) (JRH Biosciences, KS), while BHI supplemented with 1% glucose (BHIG) was used for biofilm formation assays. Each experiment using G. vaginalis was performed anaerobically (10% hydrogen, 5% carbon dioxide, and 85% nitrogen) within anaerobic glove boxes (Coy Laboratory Products, Inc., Grass Lake, Mich., USA). Three species of vaginal Lactobacillus were used in this study to evaluate the possible harmful effects of CAms on beneficial bacteria: Lactobacillus plantarum ATCC 39268, Lactobacillus rhamnosus 160 (provided by Dr. Aroutcheva, Rush University Medical Center) and Lactobacillus gasseri ATCC 33323; all were grown for 18-24 h in DeMan, Rogosa and Sharpe broth (MRS Difco B D, Franklin Lakes, N.J., USA) under aerobic conditions at 37° C. For lactobacilli biofilm formation, MRS broth supplemented with 1% glucose and 2% sucrose (Fisher Scientific, Waltham, Mass., USA) was utilized.
To prepare a stock solution, the CAm compounds were dissolved in ddH2O and incubated at 37° C. with shaking at 250 rpm for 10 min. Then, the solution was serially diluted twofold with sBHI broth to determine the MIC and with BHIG broth to identify the MIC-B/MBC-B against planktonic and biofilm cells, respectively.
According to Clinical and Laboratory Standards Institute (CLSI 2010), the MIC is defined as the lowest concentration of antimicrobial compound producing no visible growth or complete inhibition of bacterial growth during 24 h. To determine MIC values, the broth microdilution assay was performed according to Algburi et al. (Algburi et al., 2015. Path Dis 73(5)) with minor modifications. Briefly, the overnight-grown cells were diluted with their suitable culture medium to approach ˜10^6 CFU/ml. The number of bacterial cells was identified using spot plate method (Turovskiy et al., 2012. Infect Dis Obstet Gynecol 2012:284762). […]

[3] = test system: planktonic cells of G. vaginalis; assay: Checkerboard assay, planktonic cells; conditions: for MIC of CAm in combination with metronidazole: 24 h; for MIC: read-out: MIC when used alone
Description: To evaluate the potential effectiveness of the antimicrobial combinations on planktonic and biofilm cells, a checkerboard assay was performed following Algburi et al. (Algburi et al., 2015. Path Dis 73(5)) with minor modifications. For planktonic cells, the overnight grown G. vaginalis was diluted to approximately 10^6 CFU/ml. Each antimicrobial agent was diluted twofold with sBHI broth into two separate 96-well non-tissue culture microplates. From each dilution of antimicrobial B, 50 μl was added horizontally over 50 μl of antimicrobial A. Then, 100 μl of bacterial suspension (10^6 CFU/ml) was separately added to the predetermined concentration of antimicrobial combinations. The MIC of each combination was determined after 24 h of incubation.
Isobolograms were used to compare the MIC and MBC-B values of each antimicrobial alone with its MIC and MBC-B values in combination with other antimicrobials. The point on the axis (X) refers to MIC or MBC-B values of the first antimicrobial with the coordinates (0, x), and the point on the axis (Y) represents the MIC or MBC-B values of the second antimicrobial with the coordinates (y, 0) when they used alone. The two MIC or MBCs-B values are connected by a dashed line (Turovskiy Y, Chikindas M L. 2011 Probiotics Antimicrob Proteins 3:144-149). The MICs or MBCs-B of each antimicrobial combination are plotted as dots on the graph. Results are expressed according to the locations of these dots from the line that connects MICs or MBCs-B of the first and second antimicrobials. When MICs or MBCs-B values are located under the line, the two combining antimicrobials are synergized, but antagonized against the tested microorganism when these dots of interaction are above. An additive effect is observed when these dots are located on the line.

SMILES | MBC-B G. vaginalis [1] | MIC G. vaginalis [2] | MIC of CAm in combination with metronidazole [3] | MIC [3]
CCCCCCCCCCOC(C(=O)NCCN)C(OCCCCCCCCCC)C(=O)NCCN.Cl.Cl (stereo not drawn) [5b] | 425.6 µM | 1.1 µM | 0.2 µM | 1.1 µM
CCCCCCCC(=O)OC(C(=O)NCCN)C(OC(=O)CCCCCCC)C(=O)NCCN.Cl.Cl (stereo not drawn) [8a] | 117.6 µM | 24.4 µM | 3.4 µM | 24.4 µM
CCCCCCCCCC(=O)OC(C(=O)NCCN)C(OC(=O)CCCCCCCCC)C(=O)NCCN.Cl.Cl (stereo not drawn) [8b] | 425.6 µM | 2.3 µM | 0.2 µM | 10 µM
